“And” between values parts separate entries of the source, which are not always exact repeats. Identical values can stand only once. Like-named read-outs stand apart in the source and are kept apart here.
How the values were obtained:
E. coli = type: cell-based, Escherichia coli; conditions: 24 h contact time
Description: Escherichia coli ATCC 11229 (Culti-loops, Remel Europe, Dartford, Kent, UK) and Pseudomonas aeruginosa ATCC 15442 (Cuti-loops, Remel Europe, Dartford, Kent, UK) were selected as model Gram-negative organisms for the challenge testing of the antimicrobial coatings. Each bacterial strain was streaked for isolated colonies on Tryptic Soy Agar (TSA) plates (Difco, Becton Dickinson, Sparks, Md., U.S.A.) and incubated at 37° C. for 12 to 18 hours. Broth cultures were prepared by first picking 1-2 isolated colonies from TSA plates and inoculating 5 mL Tryptic Soy Broth (TSB; Difco, Becton Dickinson, Sparks, Md., U.S.A.) in a 16 mm test tube. This culture was grown in a shaking water bath at 150 RPM for 8 hours at 37° C. After the eight hours, 125 μL of this culture was added to 50 mL of TSB in a side-arm Klett flask and grown for approximately 8 hours in shaking water bath (150 RPM) at 37° C. The bacterial broths were grown to an A590 of 1.2-1.5, which correlated to approximately 10^9 CFU (colony forming units)/mL. 25 mL of this broth were transferred to a sterile 30 mL Oakridge tube and centrifuged at 12,000×g for 10 minutes at 4° C. (Sorval SS34 rotor) to pelletize the bacteria. The bacterial pellet was washed once and resuspended in 25 mL of phosphate buffer solution (PBS; BBL, FTA Hemaglutination Buffer, Becton Dickinson, Sparks, Md., U.S.A.). The suspension was diluted with PBS to achieve the target range of 10^5-10^6 CFU/mL and used to inoculate the slides containing antibacterial coatings.
Xylene/methanol (5:1 by weight) is used to dissolve the silver surfactants to facilitate homogeneously mixing with the alkyd resin composition.
A minus sign (−) denotes no growth, a plus sign (+) denotes confluent growth, and a capital P (P) denotes […].
Xylene/methanol (5:1 by weight) is used to dissolve the silver surfactants to facilitate homogeneously mixing with the acrylic resin composition.
The same laboratory experimental solvent based acrylic paint described in Example 34 is used to challenge E. coli by adding various levels of the invention silver anionic surfactants as described in Example 34.
A commercially available 2K epoxy resin paint is obtained from a local paint store (Sherwin Williams High Solids Epoxy Tile Clad HS; Part A B62WC11; Part B B60VZ75, The Sherwin Williams Company) and the same silver anionic surfactants described in Example 35 are used to prepare test coatings on microscope slides containing various levels of silver ion. These surfactants are dissolved in xylene/methanol (5:1 by weight) to facilitate their quantitative addition to the coating mixture.

Staphylococcus aureus = experiment: Growth on surfactant/TSA agar plates; type: cell-based; further: test concentration or dose not given here
Bacillus subtilis = experiment: Growth on surfactant/TSA agar plates; type: cell-based; further: test concentration or dose not given here
Streptococcus viridans = experiment: Growth on surfactant/TSA agar plates; type: cell-based; conditions: Streptococcus viridans strain EM8
Streptococcus bovis = experiment: Growth on surfactant/TSA agar plates; type: cell-based; conditions: Streptococcus bovis strain EM12
Enterococcus fecalis = experiment: Growth on surfactant/TSA agar plates; type: cell-based; further: test concentration or dose not given here
[1] = tested on: Staphylococcus epidermidis; experiment: Growth on surfactant/TSA agar plates; type: cell-based; conditions: Staphylococcus epidermidis strain EM3/ATCC12228
Streptococcus pyogenes = experiment: Growth on surfactant/TSA agar plates; type: cell-based; conditions: Streptococcus pyogenes strain EM14; further: test concentration or dose not given here
Streptococcus agalactiae = experiment: Growth on surfactant/TSA agar plates; type: cell-based; conditions: Streptococcus agalactiae strain EM13
Micrococcus luteus = experiment: Growth on surfactant/TSA agar plates; type: cell-based; conditions: Micrococcus luteus strain EM17
[2] = laboratory solvent based acrylic paint
[3] = Staphylococcus aureus strain ATCC6538
[4] = Staphylococcus aureus strain EM24/ATCC25923
[5] = Bacillus subtilis strain ATCC33
[6] = Enterococcus fecalis strain EM19 (first listing)
[7] = Enterococcus fecalis strain EM19 (second listing)

SMILES: CCCCCCCCCCCCOS(=O)(=O)[O-].[Ag+] [AgDS, Silver dodecylsufate]
- E. coli growth on coating (E. coli; alkyd resin paint, 0.0012 weight % Ag in coating): +
- E. coli growth on coating (E. coli; alkyd resin paint, 0.003 weight % Ag in coating): +
- E. coli growth on coating (E. coli; alkyd resin paint, 0.006 weight % Ag in coating): +
- E. coli growth on coating (E. coli; alkyd resin paint, 0.012 weight % Ag in coating): +
- E. coli growth on coating (E. coli; alkyd resin paint, 0.03 weight % Ag in coating): −
- E. coli growth on coating (E. coli; alkyd resin paint, 0.06 weight % Ag in coating): −
- E. coli growth on coating (E. coli; alkyd resin paint, 0.12 weight % Ag in coating): −
- E. coli growth on coating (E. coli; commercial 2K epoxy paint, 0.0012 weight % Ag in coating): +
- E. coli growth on coating (E. coli; commercial 2K epoxy paint, 0.003 weight % Ag in coating): +
- E. coli growth on coating (E. coli; commercial 2K epoxy paint, 0.006 weight % Ag in coating): +
- E. coli growth on coating (E. coli; commercial 2K epoxy paint, 0.03 weight % Ag in coating): −
- E. coli growth on coating (E. coli; commercial 2K epoxy paint, 0.06 weight % Ag in coating): −
- E. coli growth on coating (E. coli; commercial 2K epoxy paint, 0.12 weight % Ag in coating): −
- Silver level giving complete inhibition of growth (E. coli; commercial 2K epoxy paint): 0.03 % w/w
- Silver level partially effective (E. coli; commercial 2K epoxy paint): 0.012 % w/w
- E. coli growth on coating (E. coli; commercial solvent borne acrylate paint, 0.0012 weight % Ag in coating): +
- E. coli growth on coating (E. coli; commercial solvent borne acrylate paint, 0.003 weight % Ag in coating): +
- E. coli growth on coating (E. coli; commercial solvent borne acrylate paint, 0.006 weight % Ag in coating): +
- E. coli growth on coating (E. coli; commercial solvent borne acrylate paint, 0.012 weight % Ag in coating): +
- E. coli growth on coating (E. coli; commercial solvent borne acrylate paint, 0.03 weight % Ag in coating): −
- E. coli growth on coating (E. coli; commercial solvent borne acrylate paint, 0.06 weight % Ag in coating): −
- E. coli growth on coating (E. coli; commercial solvent borne acrylate paint, 0.12 weight % Ag in coating): −
- Silver level effective at preventing any growth (E. coli; commercial solvent borne acrylic paint): completely effective at this lower level
- Silver level preventing any growth (E. coli; [2]): 0.03 % w/w
- Silver level with partial inhibition (E. coli; [2]): 0.012%
- E. coli growth on coating (E. coli; laboratory solvent borne acrylate paint, 0.0012 weight % Ag in coating): +
- E. coli growth on coating (E. coli; laboratory solvent borne acrylate paint, 0.003 weight % Ag in coating): +
- E. coli growth on coating (E. coli; laboratory solvent borne acrylate paint, 0.006 weight % Ag in coating): +
- E. coli growth on coating (E. coli; laboratory solvent borne acrylate paint, 0.03 weight % Ag in coating): −
- E. coli growth on coating (E. coli; laboratory solvent borne acrylate paint, 0.06 weight % Ag in coating): −
- E. coli growth on coating (E. coli; laboratory solvent borne acrylate paint, 0.12 weight % Ag in coating): −

SMILES: CCCCC(CC)COC(=O)CC(C(=O)OCC(CC)CCCC)S(=O)(=O)[O-].[Na+] (stereo not shown) [Compound S1]
- No Growth(−)/Full Growth(+), replicate columns (Staphylococcus aureus; [3]): −
- No Growth(−)/Full Growth(+), replicate columns (Staphylococcus aureus; [4]): −
- No Growth(−)/Full Growth(+), replicate columns (Bacillus subtilis; [5]): −
- No Growth(−)/Full Growth(+), replicate columns (Bacillus subtilis; Bacillus subtilis strain EM27): −
- No Growth(−)/Full Growth(+), replicate columns (Streptococcus viridans): −
- No Growth(−)/Full Growth(+), replicate columns (Streptococcus bovis): −
- No Growth(−)/Full Growth(+), replicate columns (Enterococcus fecalis; [6]): −
- No Growth(−)/Full Growth(+), replicate columns (Enterococcus fecalis; [7]): −
- No Growth(−)/Full Growth(+), replicate columns [1]: −
- No Growth(−)/Full Growth(+), replicate columns (Streptococcus pyogenes): −
- No Growth(−)/Full Growth(+), replicate columns (Streptococcus agalactiae): −
- No Growth(−)/Full Growth(+), replicate columns (Micrococcus luteus): −

SMILES: CCCCC(CC)COP(=O)([O-])OCCC(CC)CCC.[Na+] (stereo not shown) [Compound S2]
- No Growth(−)/Full Growth(+), replicate columns (Staphylococcus aureus; [3]): −
- No Growth(−)/Full Growth(+), replicate columns (Staphylococcus aureus; [4]): −
- No Growth(−)/Full Growth(+), replicate columns (Bacillus subtilis; [5]): −
- No Growth(−)/Full Growth(+), replicate columns (Bacillus subtilis; Bacillus subtilis strain EM27): −
- No Growth(−)/Full Growth(+), replicate columns (Streptococcus viridans): −
- No Growth(−)/Full Growth(+), replicate columns (Streptococcus bovis): −
- No Growth(−)/Full Growth(+), replicate columns (Enterococcus fecalis; [6]): −
- No Growth(−)/Full Growth(+), replicate columns (Enterococcus fecalis; [7]): −
- No Growth(−)/Full Growth(+), replicate columns [1]: −
- No Growth(−)/Full Growth(+), replicate columns (Streptococcus pyogenes): −
- No Growth(−)/Full Growth(+), replicate columns (Streptococcus agalactiae): −
- No Growth(−)/Full Growth(+), replicate columns (Micrococcus luteus): −

SMILES: CCCCCCCCCCCCCCCCCCNC(=O)CC(C(=O)[O-])S(=O)(=O)[O-].[Na+].[Na+] (stereo not shown) [Compound S3]
- No Growth(−)/Full Growth(+), replicate columns (Staphylococcus aureus; [3]): −
- No Growth(−)/Full Growth(+), replicate columns (Staphylococcus aureus; [4]): −
- No Growth(−)/Full Growth(+), replicate columns (Bacillus subtilis; [5]): −
- No Growth(−)/Full Growth(+), replicate columns (Bacillus subtilis; Bacillus subtilis strain EM27): −
- No Growth(−)/Full Growth(+), replicate columns (Streptococcus viridans): +
- No Growth(−)/Full Growth(+), replicate columns (Streptococcus bovis): −
- No Growth(−)/Full Growth(+), replicate columns (Enterococcus fecalis; [6]): −
- No Growth(−)/Full Growth(+), replicate columns (Enterococcus fecalis; [7]): +
- No Growth(−)/Full Growth(+), replicate columns [1]: −
- No Growth(−)/Full Growth(+), replicate columns (Streptococcus pyogenes): −
- No Growth(−)/Full Growth(+), replicate columns (Streptococcus agalactiae): −
- No Growth(−)/Full Growth(+), replicate columns (Micrococcus luteus): −

SMILES: CC(C)CC(C)OC(=O)CC(C(=O)OC(C)CC(C)C)S(=O)(=O)[O-].[Na+] (stereo not shown) [Compound S4]
- No Growth(−)/Full Growth(+), replicate columns (Staphylococcus aureus; [3]): +
- No Growth(−)/Full Growth(+), replicate columns (Staphylococcus aureus; [4]): +
- No Growth(−)/Full Growth(+), replicate columns (Bacillus subtilis; [5]): − and +
- No Growth(−)/Full Growth(+), replicate columns (Bacillus subtilis; Bacillus subtilis strain EM27): +
- No Growth(−)/Full Growth(+), replicate columns (Streptococcus viridans): +
- No Growth(−)/Full Growth(+), replicate columns (Streptococcus bovis): −
- No Growth(−)/Full Growth(+), replicate columns (Enterococcus fecalis; [6]): +
- No Growth(−)/Full Growth(+), replicate columns (Enterococcus fecalis; [7]): +
- No Growth(−)/Full Growth(+), replicate columns [1]: +
- No Growth(−)/Full Growth(+), replicate columns (Streptococcus pyogenes): −
- No Growth(−)/Full Growth(+), replicate columns (Streptococcus agalactiae): − and +
- No Growth(−)/Full Growth(+), replicate columns (Micrococcus luteus): − (2×) and +

SMILES: O=C(CC(C(=O)OC1CCCCC1)S(=O)(=O)[O-])OC1CCCCC1.[Na+] (stereo not shown) [Compound S5]
- No Growth(−)/Full Growth(+), replicate columns (Staphylococcus aureus; [3]): +
- No Growth(−)/Full Growth(+), replicate columns (Staphylococcus aureus; [4]): +
- No Growth(−)/Full Growth(+), replicate columns (Bacillus subtilis; [5]): −
- No Growth(−)/Full Growth(+), replicate columns (Bacillus subtilis; Bacillus subtilis strain EM27): − and +
- No Growth(−)/Full Growth(+), replicate columns (Streptococcus viridans): +
- No Growth(−)/Full Growth(+), replicate columns (Streptococcus bovis): −
- No Growth(−)/Full Growth(+), replicate columns (Enterococcus fecalis; [6]): +
- No Growth(−)/Full Growth(+), replicate columns (Enterococcus fecalis; [7]): +
- No Growth(−)/Full Growth(+), replicate columns [1]: +
- No Growth(−)/Full Growth(+), replicate columns (Streptococcus pyogenes): −
- No Growth(−)/Full Growth(+), replicate columns (Streptococcus agalactiae): − (2×) and +
- No Growth(−)/Full Growth(+), replicate columns (Micrococcus luteus): + and − (2×)

SMILES: CCCCCCCCCCCCCOC(=O)CC(C(=O)OCCCCCCCCCCCCC)S(=O)(=O)[O-].[Na+] (stereo not shown) [Compound S6]
- No Growth(−)/Full Growth(+), replicate columns (Staphylococcus aureus; [3]): +
- No Growth(−)/Full Growth(+), replicate columns (Staphylococcus aureus; [4]): +
- No Growth(−)/Full Growth(+), replicate columns (Bacillus subtilis; [5]): + (2×) and −
- No Growth(−)/Full Growth(+), replicate columns (Bacillus subtilis; Bacillus subtilis strain EM27): − (2×) and +
- No Growth(−)/Full Growth(+), replicate columns (Streptococcus viridans): +
- No Growth(−)/Full Growth(+), replicate columns (Streptococcus bovis): −
- No Growth(−)/Full Growth(+), replicate columns (Enterococcus fecalis; [6]): +
- No Growth(−)/Full Growth(+), replicate columns (Enterococcus fecalis; [7]): +
- No Growth(−)/Full Growth(+), replicate columns [1]: +
- No Growth(−)/Full Growth(+), replicate columns (Streptococcus pyogenes): −
- No Growth(−)/Full Growth(+), replicate columns (Streptococcus agalactiae): − (2×) and +
- No Growth(−)/Full Growth(+), replicate columns (Micrococcus luteus): +

Source: US20090060984A1, “ANIONIC SURFACTANTS LETHAL TO GRAM-POSITIVE BACTERIA” (priority 2007, published 2009)
